{"source": "patent US20100041089A1", "about": "“IMPROVED METHOD FOR DETECTING CHEMICAL […]” (priority 2006, published 2010)", "tested_on": "yeast genes (expressed mRNA)", "experiment": "DNA chip measurement of expressed mRNA of yeast genes after culture with a toxic chemical substance", "type": "cell-based, Saccharomyces cerevisiae S288C", "settings": "for level of expressed mRNA in the presence of chemical substance / level in the absence of chemical substance: cultured two hours with the chemical substance; for The level of expressed mRNA in the presence of chemical substance/The level of expressed mRNA in the absence of chemical substance: cultured two hours with substance", "outline": "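Fluorescence ratio, treated over untreated, read by chip scanner; ratio of two or more counted significant. Cells: S288C yeast, YPD, 25° C, chemical added at log phase for 2 h at growth-inhibiting, sublethal level. Cy3/Cy5-labeled cDNA from oligo-dT-purified mRNA.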"}
{"substance": "Na2As [(1)]", "values": [{"measurement": "level of expressed mRNA in the presence of chemical substance / level in the absence of chemical substance", "setting": "yeast gene YDR133C", "value": 0.9}, {"measurement": "level of expressed mRNA in the presence of chemical substance / level in the absence of chemical substance", "setting": "yeast gene YDR250C", "value": 1.9}, {"measurement": "level of expressed mRNA in the presence of chemical substance / level in the absence of chemical substance", "setting": "yeast gene YDR278C", "value": 1.0}, {"measurement": "level of expressed mRNA in the presence of chemical substance / level in the absence of chemical substance", "setting": "yeast gene YDR281C", "value": 2.1}, {"measurement": "The level of expressed mRNA in the presence of chemical substance/The level of expressed mRNA in the absence of chemical substance", "setting": "yeast gene YDR330W", "value": 0.8}, {"measurement": "level of expressed mRNA in the presence of chemical substance / level in the absence of chemical substance", "setting": "yeast gene YDR366C", "value": 0.9}, {"measurement": "The level of expressed mRNA in the presence of chemical substance/The level of expressed mRNA in the absence of chemical substance", "setting": "yeast gene YDR411C", "value": 0.9}, {"measurement": "The level of expressed mRNA in the presence of chemical substance/The level of expressed mRNA in the absence of chemical substance", "setting": "yeast gene YDR511W", "value": 1.3}, {"measurement": "The level of expressed mRNA in the presence of chemical substance/The level of expressed mRNA in the absence of chemical substance", "setting": "yeast gene YDR545W", "value": 0.6}, {"measurement": "The level of expressed mRNA in the presence of chemical substance/The level of expressed mRNA in the absence of chemical substance", "setting": "yeast gene YEL001C", "value": 1.0}, {"measurement": "The level of expressed mRNA in the presence of chemical substance/The level of expressed mRNA in the absence of chemical substance", "setting": "yeast gene YER004W", "value": 1.0}, {"measurement": "The level of expressed mRNA in the presence of chemical substance/The level of expressed mRNA in the absence of chemical substance", "setting": "yeast gene YER035W", "value": 1.4}, {"measurement": "The level of expressed mRNA in the presence of chemical substance/The level of expressed mRNA in the absence of chemical substance", "setting": "yeast gene YER079W", "value": 1.1}, {"measurement": "The level of expressed mRNA in the presence of chemical substance/The level of expressed mRNA in the absence of chemical substance", "setting": "yeast gene YER106W", "value": 1.3}, {"measurement": "The level of expressed mRNA in the presence of chemical substance/The level of expressed mRNA in the absence of chemical substance", "setting": "yeast gene YER158C", "value": 1.2}, {"measurement": "The level of expressed mRNA in the presence of chemical substance/The level of expressed mRNA in the absence of chemical substance", "setting": "yeast gene YER163C", "value": 1.1}, {"measurement": "The level of expressed mRNA in the presence of chemical substance/The level of expressed mRNA in the absence of chemical substance", "setting": "yeast gene YER175C", "value": 0.9}, {"measurement": "The level of expressed mRNA in the presence of chemical substance/The level of expressed mRNA in the absence of chemical substance", "setting": "yeast gene YFL006W", "value": 0.8}, {"measurement": "The level of expressed mRNA in the presence of chemical substance/The level of expressed mRNA in the absence of chemical substance", "setting": "yeast gene YFL010C", "value": 1.0}, {"measurement": "The level of expressed mRNA in the presence of chemical substance/The level of expressed mRNA in the absence of chemical substance", "setting": "yeast gene YFL024C", "value": 1.0}, {"measurement": "The level of expressed mRNA in the presence of chemical substance/The level of expressed mRNA in the absence of chemical substance", "setting": "yeast gene YFL032W", "value": 0.4}, {"measurement": "level of expressed mRNA in the presence of chemical substance / level in the absence of chemical substance", "setting": "yeast gene YFR026C", "value": 0.9}, {"measurement": "The level of expressed mRNA in the presence of chemical substance/The level of expressed mRNA in the absence of chemical substance", "setting": "yeast gene YGL037C", "value": 1.5}, {"measurement": "The level of expressed mRNA in the presence of chemical substance/The level of expressed mRNA in the absence of chemical substance", "setting": "yeast gene YGL047W", "value": 1.0}, {"measurement": "The level of expressed mRNA in the presence of chemical substance/The level of expressed mRNA in the absence of chemical substance", "setting": "yeast gene YGL053W", "value": 1.5}, {"measurement": "level of expressed mRNA in the presence of chemical substance / level in the absence of chemical substance", "setting": "yeast gene YGL088W", "value": 0.9}, {"measurement": "The level of expressed mRNA in the presence of chemical substance/The level of expressed mRNA in the absence of chemical substance", "setting": "yeast gene YGL121C", "value": 2.6}, {"measurement": "The level of expressed mRNA in the presence of chemical substance/The level of expressed mRNA in the absence of chemical substance", "setting": "yeast gene YGL199C", "value": 1.1}, {"measurement": "level of expressed mRNA in the presence of chemical substance / level in the absence of chemical substance", "setting": "yeast gene YGR038W", "value": 0.9}, {"measurement": "The level of expressed mRNA in the presence of chemical substance/The level of expressed mRNA in the absence of chemical substance", "setting": "yeast gene YGR101W", "value": 1.0}, {"measurement": "The level of expressed mRNA in the presence of chemical substance/The level of expressed mRNA in the absence of chemical substance", "setting": "yeast gene YGR110W", "value": 1.6}, {"measurement": "The level of expressed mRNA in the presence of chemical substance/The level of expressed mRNA in the absence of chemical substance", "setting": "yeast gene YGR130C", "value": 0.9}, {"measurement": "level of expressed mRNA in the presence of chemical substance / level in the absence of chemical substance", "setting": "yeast gene YGR139W", "value": 1.3}, {"measurement": "The level of expressed mRNA in the presence of chemical substance/The level of expressed mRNA in the absence of chemical substance", "setting": "yeast gene YGR154C", "value": 1.8}, {"measurement": "The level of expressed mRNA in the presence of chemical substance/The level of expressed mRNA in the absence of chemical substance", "setting": "yeast gene YGR221C", "value": 0.9}, {"measurement": "level of expressed mRNA in the presence of chemical substance / level in the absence of chemical substance", "setting": "yeast gene YGR243W", "value": 1.4}, {"measurement": "level of expressed mRNA in the presence of chemical substance / level in the absence of chemical substance", "setting": "yeast gene YGR293C", "value": 0.5}, {"measurement": "level of expressed mRNA in the presence of chemical substance / level in the absence of chemical substance", "setting": "yeast gene YHL006C", "value": 0.7}, {"measurement": "level of expressed mRNA in the presence of chemical substance / level in the absence of chemical substance", "setting": "yeast gene YHR095W", "value": 1.1}, {"measurement": "level of expressed mRNA in the presence of chemical substance / level in the absence of chemical substance", "setting": "yeast gene YHR105W", "value": 0.9}, {"measurement": "The level of expressed mRNA in the presence of chemical substance/The level of expressed mRNA in the absence of chemical substance", "setting": "yeast gene YHR138C", "value": 2.8}, {"measurement": "level of expressed mRNA in the presence of chemical substance / level in the absence of chemical substance", "setting": "yeast gene YHR181W", "value": 0.9}, {"measurement": "The level of expressed mRNA in the presence of chemical substance/The level of expressed mRNA in the absence of chemical substance", "setting": "yeast gene YHR199C", "value": 1.9}, {"measurement": "The level of expressed mRNA in the presence of chemical substance/The level of expressed mRNA in the absence of chemical substance", "setting": "yeast gene YIL023C", "value": 1.1}, {"measurement": "The level of expressed mRNA in the presence of chemical substance/The level of expressed mRNA in the absence of chemical substance", "setting": "yeast gene YIL041W", "value": 1.0}, {"measurement": "The level of expressed mRNA in the presence of chemical substance/The level of expressed mRNA in the absence of chemical substance", "setting": "yeast gene YIL087C", "value": 1.3}, {"measurement": "level of expressed mRNA in the presence of chemical substance / level in the absence of chemical substance", "setting": "yeast gene YIL127C", "value": 1.1}, {"measurement": "level of expressed mRNA in the presence of chemical substance / level in the absence of chemical substance", "setting": "yeast gene YJL017W", "value": 1.1}, {"measurement": "level of expressed mRNA in the presence of chemical substance / level in the absence of chemical substance", "setting": "yeast gene YJL037W", "value": 1.8}, {"measurement": "The level of expressed mRNA in the presence of chemical substance/The level of expressed mRNA in the absence of chemical substance", "setting": "yeast gene YJL057C", "value": 1.5}, {"measurement": "The level of expressed mRNA in the presence of chemical substance/The level of expressed mRNA in the absence of chemical substance", "setting": "yeast gene YJL066C", "value": 0.9}, {"measurement": "The level of expressed mRNA in the presence of chemical substance/The level of expressed mRNA in the absence of chemical substance", "setting": "yeast gene YJL082W", "value": 1.4}, {"measurement": "level of expressed mRNA in the presence of chemical substance / level in the absence of chemical substance", "setting": "yeast gene YJL097W", "value": 1.0}]}
